The record followed here is patent US9701670B2, “Pyrazolyl-ureas as kinase inhibitors” (RESPIVERT LIMITED, priority 2013, dated 2017).

Usually IC50 stands for the concentration that gives 50% inhibition. Higher therefore signals a need for much substance.

In data set [1] the test system is Differentiated U937 cells. In words: (l) Cell viability: MTT assay. Format: cell-based, human. Conditions: 1 μg/mL. The method, then:
Differentiated U937 cells are pre-incubated with each test compound (final concentration 1 μg/mL or 10 μg/mL in 200 μL media indicated below) under two protocols: the first for 4 hr in 5% FCS RPMI1640 media and the second in 10% FCS RPMI1640 media for 24 h. The supernatant is replaced with new media (200 μL) and MTT stock solution (10 μL, 5 mg/mL) is added to each well. After incubation for 1 hr the media are removed, DMSO (200 μL) is added to each well and the plates are shaken lightly for 1 hr prior to reading the absorbance at 550 nm. The percentage loss of cell viability is calculated for each well relative to vehicle (0.5% DMSO) treatment. Consequently an apparent increase in cell viability for drug treatment relative to vehicle is tabulated as a negative percentage.
On the technique in general: Formazan colour is commonly taken as a measure of viable cells.

In data set [2] the target is p38 MAPKα isoform (MAPK14) (Homo sapiens (Human), UniProt Q16539). In words: p38 MAPKα enzyme inhibition (FRET, Z-LYTE), Method 1. Format: biochemical. The settings on record: Method 1 (Table 4a1). The method, then: The enzyme inhibitory activities of compounds disclosed herein are determined by FRET using synthetic peptides labelled with both donor and acceptor fluorophores (Z-LYTE, Invitrogen Ltd., Paisley, UK).
Chain of p38 MAPKα isoform (MAPK14) (Q16539 whole entry, canonical isoform): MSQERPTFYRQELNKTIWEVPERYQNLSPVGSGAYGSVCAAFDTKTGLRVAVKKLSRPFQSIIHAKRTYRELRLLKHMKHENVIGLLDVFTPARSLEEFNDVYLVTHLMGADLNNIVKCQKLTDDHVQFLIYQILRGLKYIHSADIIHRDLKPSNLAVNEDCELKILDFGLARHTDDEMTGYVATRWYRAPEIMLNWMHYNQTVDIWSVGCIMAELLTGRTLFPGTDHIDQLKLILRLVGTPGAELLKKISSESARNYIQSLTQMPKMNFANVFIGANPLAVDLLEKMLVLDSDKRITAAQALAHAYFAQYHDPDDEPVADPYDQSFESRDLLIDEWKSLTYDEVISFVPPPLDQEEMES
The inhibitory activities of test compounds against the p38 MAPKα isoform (MAPK14: Invitrogen), are evaluated indirectly by determining the level of activation/phosphorylation of the down-stream molecule, MAPKAP-K2. The p38 MAPKα protein (80 ng/mL, 2.5 μL) is mixed with the test compound (2.5 μL of either 4 μg/mL, 0.4 μg/mL, 0.04 μg/mL or 0.004 μg/mL) for 2 hr at RT. […] The mixture is incubated for 1 hr at RT. Development reagent (protease, 5 μL) is added for 1 hr prior to detection in a fluorescence microplate reader (Varioskan® Flash, ThermoFisher Scientific).
In all cases, the site-specific protease cleaves non-phosphorylated peptide only and eliminates the FRET signal. Phosphorylation levels of each reaction are calculated using the ratio of coumarin emission (donor) over fluorescein emission (acceptor), for which high ratios indicate high phosphorylation and low ratios indicate low phosphorylation levels.

Consider `Cc1ccc(-n2nc(C(C)C)cc2NC(=O)Nc2ccc(Oc3ccnc(Nc4cc(Cl)cc(C(=O)NCCN5CCOCC5)c4)n3)c3ccccc23)cc1` [Example 60, 3-chloro-5-((4-((4-(3-(3-isopropyl-1-(p-tolyl)-1H-pyrazol-5-yl)ureido)naphthalen-1-yl)oxy)pyrimidin-2-yl)amino)-N-(2-morpholinoethyl)benzamide], for which, in data set [1], the “Cell viability at time point in d-U937 cells 4 h” value was “−ve (−ve and +ve indicate that the value is below and above respectively, the no significant effect threshold, defined as 30% inhibition at 1 μg/mL at the time point indicated.)”; the “Cell viability at time point in d-U937 cells 24 h” value is “−ve (−ve and +ve indicate that the value is below and above respectively, the no significant effect threshold, defined as 30% inhibition at 1 μg/mL at the time point indicated.)”. Further, the IC50 in data set [2] was found to be 16 nM.

Take `CNC(=O)c1cccc(Nc2nccc(Oc3ccc(NC(=O)Nc4cc(C(C)(C)C)nn4-c4ccc(C)cc4)c4ccccc34)n2)c1` [Example 16, 3-((4-((4-(3-(3-(tert-butyl)-1-(p-tolyl)-1H-pyrazol-5-yl)ureido)naphthalen-1-yl)oxy)pyrimidin-2-yl)amino)-N-methylbenzamide]: in data set [1], the “Cell viability at time point in d-U937 cells 4 h” value is “−ve (−ve and +ve indicate that the value is below and above respectively, the no significant effect threshold, defined as 30% inhibition at 1 μg/mL at the time point indicated.)”; the “Cell viability at time point in d-U937 cells 24 h” value was “−ve (−ve and +ve indicate that the value is below and above respectively, the no significant effect threshold, defined as 30% inhibition at 1 μg/mL at the time point indicated.)”. Moreover, the IC50 in data set [2] came to 34 nM.

As to `Cc1ccc(-n2nc(C3(C)COC3)cc2NC(=O)Nc2ccc(Oc3ccnc(Nc4cccc(C(=O)NCCN5CCOCC5)c4)n3)c3ccccc23)cc1` [Example 22, 3-((4-((4-(3-(3-(3-methyloxetan-3-yl)-1-(p-tolyl)-1H-pyrazol-5-yl)ureido)naphthalen-1-yl)oxy)pyrimidin-2-yl)amino)-N-(2-morpholinoethyl)benzamide], in data set [1], the “Cell viability at time point in d-U937 cells 4 h” value is “−ve (−ve and +ve indicate that the value is below and above respectively, the no significant effect threshold, defined as 30% inhibition at 1 μg/mL at the time point indicated.)”; the “Cell viability at time point in d-U937 cells 24 h” value is “−ve (−ve and +ve indicate that the value is below and above respectively, the no significant effect threshold, defined as 30% inhibition at 1 μg/mL at the time point indicated.)”. Besides, the IC50 in data set [2] is < 1 nM.

With `Cc1ccc(-n2nc(C(C)(C)C)cc2NC(=O)Nc2ccc(Oc3ccnc(Nc4cccc(C(N)=O)c4)n3)c3ccccc23)cc1` [Example 2, 3-((4-((4-(3-(3-(tert-Butyl)-1-(p-tolyl)-1H-pyrazol-5-yl)ureido)naphthalen-1-yl)oxy)pyrimidin-2-yl)amino)benzamide], in data set [1], the “Cell viability at time point in d-U937 cells 4 h” value is “−ve (−ve and +ve indicate that the value is below and above respectively, the no significant effect threshold, defined as 30% inhibition at 1 μg/mL at the time point indicated.)”; the “Cell viability at time point in d-U937 cells 24 h” value is “−ve (−ve and +ve indicate that the value is below and above respectively, the no significant effect threshold, defined as 30% inhibition at 1 μg/mL at the time point indicated.)”. For the same molecule, in data set [2], the IC50 came out at 27 nM.

Turning to `Cc1ccc(-n2nc(C(C)(C)C)cc2NC(=O)Nc2ccc(Oc3ccnc(Nc4cc(Br)cc(C(=O)NCCN5CCOCC5)c4)n3)c3ccccc23)cc1` [Example 62, 3-bromo-5-((4-((4-(3-(3-(tert-butyl)-1-(p-tolyl)-1H-pyrazol-5-yl)ureido)naphthalen-1-yl)oxy)pyrimidin-2-yl)amino)-N-(2-morpholinoethyl)benzamide], in data set [1], the “Cell viability at time point in d-U937 cells 4 h” value is “−ve (−ve and +ve indicate that the value is below and above respectively, the no significant effect threshold, defined as 30% inhibition at 1 μg/mL at the time point indicated.)”; the “Cell viability at time point in d-U937 cells 24 h” value is “+ve (−ve and +ve indicate that the value is below and above respectively, the no significant effect threshold, defined as 30% inhibition at 1 μg/mL at the time point indicated.)”. The molecule further displayed an IC50 in data set [2] of 22 nM.

As to `COc1ccc(-n2nc(C(C)C)cc2NC(=O)Nc2ccc(Oc3ccnc(Nc4cccc(C(=O)NCCN5CCOCC5)c4)n3)c3ccccc23)cc1` [Example 20, 3-((4-((4-(3-(3-isopropyl-1-(4-methoxyphenyl)-1H-pyrazol-5-yl)ureido)naphthalen-1-yl)oxy)pyrimidin-2-yl)amino)-N-(2-morpholinoethyl)benzamide], in data set [1], the “Cell viability at time point in d-U937 cells 4 h” value is “−ve (−ve and +ve indicate that the value is below and above respectively, the no significant effect threshold, defined as 30% inhibition at 1 μg/mL at the time point indicated.)”; the “Cell viability at time point in d-U937 cells 24 h” value was “−ve (−ve and +ve indicate that the value is below and above respectively, the no significant effect threshold, defined as 30% inhibition at 1 μg/mL at the time point indicated.)”. This molecule returned an IC50 in data set [2] of 5 nM.

On to `Cc1ccc(-n2nc(C(C)C)cc2NC(=O)Nc2ccc(Oc3ccnc(Nc4cc(C)cc(C(=O)NCCN5CCOCC5)c4)n3)c3ccccc23)cc1` [Example 44, 3-((4-((4-(3-(3-isopropyl-1-(p-tolyl)-1H-pyrazol-5-yl)ureido)naphthalen-1-yl)oxy)pyrimidin-2-yl)amino)-5-methyl-N-(2-morpholinoethyl)benzamide], for which, in data set [1], the “Cell viability at time point in d-U937 cells 4 h” value is “−ve (−ve and +ve indicate that the value is below and above respectively, the no significant effect threshold, defined as 30% inhibition at 1 μg/mL at the time point indicated.)”; the “Cell viability at time point in d-U937 cells 24 h” value was “−ve (−ve and +ve indicate that the value is below and above respectively, the no significant effect threshold, defined as 30% inhibition at 1 μg/mL at the time point indicated.)”. In addition, in data set [2], the IC50 was < 1 nM.

`COc1ccc(-n2nc(C3CCCO3)cc2NC(=O)Nc2ccc(Oc3ccnc(Nc4cc(OC)cc(C(=O)NCCN5CCOCC5)c4)n3)c3ccccc23)cc1` (stereo not drawn) [Example 58, 3-methoxy-5-((4-((4-(3-(1-(4-methoxyphenyl)-3-(tetrahydrofuran-2-yl)-1H-pyrazol-5-yl)ureido)naphthalen-1-yl)oxy)pyrimidin-2-yl)amino)-N-(2-morpholinoethyl)benzamide]: in data set [1], the “Cell viability at time point in d-U937 cells 4 h” value is “−ve (−ve and +ve indicate that the value is below and above respectively, the no significant effect threshold, defined as 30% inhibition at 1 μg/mL at the time point indicated.)”; the “Cell viability at time point in d-U937 cells 24 h” value was “−ve (−ve and +ve indicate that the value is below and above respectively, the no significant effect threshold, defined as 30% inhibition at 1 μg/mL at the time point indicated.)”. Moreover, the IC50 in data set [2] is < 1 nM.

For the molecule `COc1ccc(-n2nc(C(C)C)cc2NC(=O)Nc2ccc(Oc3ccnc(Nc4cc(C(=O)NCCO)ccc4OC)n3)c3ccccc23)cc1` [Example 34, N-(2-hydroxyethyl)-3-((4-((4-(3-(3-isopropyl-1-(4-methoxyphenyl)-1H-pyrazol-5-yl)ureido)naphthalen-1-yl)oxy)pyrimidin-2-yl)amino)-4-methoxybenzamide], in data set [1], the “Cell viability at time point in d-U937 cells 4 h” value was “+ve (−ve and +ve indicate that the value is below and above respectively, the no significant effect threshold, defined as 30% inhibition at 1 μg/mL at the time point indicated.)”; the “Cell viability at time point in d-U937 cells 24 h” value was “−ve (−ve and +ve indicate that the value is below and above respectively, the no significant effect threshold, defined as 30% inhibition at 1 μg/mL at the time point indicated.)”. Moreover, the IC50 in data set [2] is < 1 nM.

As to `COc1cc(C(=O)NCCN(C)C)ccc1Nc1nccc(Oc2ccc(NC(=O)Nc3cc(C(C)C)nn3-c3ccc(C)cc3)c3ccccc23)n1` [Example 35, N-(2-(dimethylamino)ethyl)-4-((4-((4-(3-(3-isopropyl-1-(p-tolyl)-1H-pyrazol-5-yl)ureido)naphthalen-1-yl)oxy)pyrimidin-2-yl)amino)-3-methoxybenzamide], in data set [1], the “Cell viability at time point in d-U937 cells 4 h” value is “−ve (−ve and +ve indicate that the value is below and above respectively, the no significant effect threshold, defined as 30% inhibition at 1 μg/mL at the time point indicated.)”; the “Cell viability at time point in d-U937 cells 24 h” value was “−ve (−ve and +ve indicate that the value is below and above respectively, the no significant effect threshold, defined as 30% inhibition at 1 μg/mL at the time point indicated.)”. Further, the half-maximal inhibitory concentration (IC50) in data set [2] was < 1 nM.
